Counter-ions that a name gives are not always drawn.
Test system: Miro1
Experiment: High-throughput screening assay for Miro1 reduction after FCCP (immunostaining, 384-well)
Format: cell-based, human
Settings: Table 1A hits; 10 μM tested; PD patient fibroblasts, following FCCP treatment (20 μM, 14 hr)
Description: Human dermal primary fibroblasts isolated from a PD patient (ND33424) and a healthy control (ND36091) were cultured in cell media DMEM (ThermoFisher, 11995-065) supplemented with 10% fetal bovine serum (Gemini Bio-Products, 900-108, heat-inactivated), 1×Anti Anti (ThermoFisher, 15240096), and 1×GlutaMax (ThermoFisher, 35050061) maintained in a 37° C., 5% CO2 incubator with humidified atmosphere.
Fibroblast cells were plated onto clear-bottomed/black-walled 384-well plates (EK-30091, E&K Scientific, Santa Clara, Calif.) at 2000 cells/well with Matrix Wellmate dispenser (Thermo Scientific, Sunnyvale, Calif.) and plates were incubated at 37° C., 5% CO2 for 24 hrs. Next, chemical library compounds at defined concentrations, were added using fully automated liquid handling system Caliper Life Sciences Staccato system with a Twister II robot and a Sciclone ALH3000 (Caliper Life Sciences, Alameda, Calif. USA) integrated with a V&P Scientific pin tool and plates were incubated at 37° C./5% CO2 for 10 hrs. Then, 20 μM of FCCP (Carbonyl cyanide 4-(trifluoromethoxy)phenylhydrazone, Sigma-Aldrich, C2920) in cell media was added to defined wells and plates were incubated at 37° C., 5% CO2 for another 14 hr. Cells were fixed with ice-cold 90% methanol (Fisher, 482332) for 20 min at −20° C., incubated with blocking buffer (10% Normal Goat Serum (NGS) (ThermoFisher, 50062Z), 0.5% BSA (ThermoFisher, BP1600), 0.2% Triton X-100 (ThermoFisher, T8787) at room temperature (RT) for 15 min, and incubated with anti-Miro1 solution (Sigma-Aldrich, HPA0101687) at 1:100 in blocking buffer O/N at 4° C. Samples were washed with lx PBS (ThermoFisher, 10010-049) using a Plate Washer multivalve (Bio-Tek, ELx405UV), incubated with goat anti-Rabbit IgG (H+L) Cross-Adsorbed, Alexa Fluor 488 (ThermoFisher, A11008) at 1:500 in blocking buffer at 25° C. for 2 hrs and washed again with lx PBS, finally 1.0 μg/mL DAPI (ThermoFisher, D1306) in 1×PBS was added and plates were sealed using PlateLoc (Velocity11, 01867.001). All liquids were dispensed using the Multidrop 384 (Titertek, 5840200) unless otherwise stated. Fluorescent signals in plates were automatically imaged with ImageXpress Micro (Molecular Devices, IXMicro) and data were analyzed with MetaXpress Analysis (Molecular Devices). The percent of Miro1 reduction was calculated as % Positive Cells for Miro1/Median=[(Positive Cells Miro Integrated Intensity/All Nuclear Miro Integrated Intensity)−Plate Median of this same calculation (Median % Positive Miro/Nuclear Miro in Plate Data)]/[Plate Median of this same calculation (Median % Positive Miro/Nuclear Miro in Plate Data)]. Positive cells are cells having Miro1 immunostaining. […] Negative value indicates a reduction in Miro. Positive value indicates an increase in Miro. The screening and data analysis were carried out together with Stanford University High-Throughput Bioscience Centers (HTBC).
Drugs from the NIH Clinical collection library were screened at a defined 10 μM concentration with 4 biological repeats for each drug (377 compounds). […] These compounds are ranked in the order of the degree of Miro1 reduction (Table 1A). 12 small molecules that reduced Miro1 protein levels in 3 out of 4 biological repeats were ranked in order of degree of Miro1 reduction. […] These hits were ranked in order of the degree of Miro1 reduction, with the six compounds found to reduce Miro1 protein levels by 20% or more shown (Table 1A). Moreover, an additional 12 small molecules reduced Miro1 protein levels in 3 out of 4 biological repeats (Table 1B). We next screened the Biomol FDA library with 5-fold doses (1.25-2.5-5-10-20 μM) and in duplicate. […] We ranked these 3 hits in the order of the degree of Miro1 reduction (Table 1A). Taken together, we identified 14 actives (2.5% primary hit rate) and 12 potential actives.

| SMILES | % Miro1 decrease in screen |
| --- | --- |
| COc1ccc(/C=C/C(=O)Nc2ccccc2C(=O)O)cc1OC [Tranilast] | B (Reduction of Miro levels by >20% and less than 30%) |
| C[N+]1(C)CCC(OC(=O)C(O)(c2ccccc2)C2CCCC2)C1 (stereo not drawn) [Glycopyrrolate] | B (Reduction of Miro levels by >20% and less than 30%) |
| COC(=O)C1=C(C)NC(C)=C(C(=O)OC2CCCN(Cc3ccccc3)C2)C1c1cccc([N+](=O)[O-])c1 (stereo not drawn) [Benidipine HCl] | A (Reduction of Miro levels by >30%) |
| Cn1nnc2c(C(N)=O)ncn2c1=O [Temozolomide] | A (Reduction of Miro levels by >30%) |
| CNC(=O)Oc1ccc2c(c1)[C@]1(C)CCN(C)[C@@H]1N2C [Physostigmine] | B (Reduction of Miro levels by >20% and less than 30%) |
| CN(C)CCC[C@@]1(c2ccc(F)cc2)OCc2cc(C#N)ccc21 [Escitalopram Oxalate] | A (Reduction of Miro levels by >30%) |

Same assay, conditions: Table 1B additional small molecules (3 out of 4 biological repeats); 10 μM tested; following FCCP treatment

| SMILES | % Miro1 decrease in screen |
| --- | --- |
| C[C@H]1COc2c(C3(N)CC3)c(F)cc3c(=O)c(C(=O)O)cn1c23 [Pazufloxacin] | B (Reduction of Miro levels by >20% and less than 30%) |
| COc1ccc2[nH]c([S+]([O-])Cc3ncc(C)c(OC)c3C)nc2c1 (stereo not drawn) [Omeprazole] | C (Reduction of Miro by >10% and less than 20%) |
| CC(C(=O)O)c1ccc(CC2CCCC2=O)cc1 (stereo not drawn) [Loxoprofen] | B (Reduction of Miro levels by >20% and less than 30%) |
| CC(C(=O)O)c1ccc(-c2ccccc2)c(F)c1 (stereo not drawn) [Flurbiprofen] | B (Reduction of Miro levels by >20% and less than 30%) |

Test system: Miro1
Experiment: Hit confirmation: immunocytochemistry and confocal microscopy of Miro1 in sporadic PD fibroblasts
Format: cell-based, human
Settings: DMSO instead of FCCP, with compound at highest screening concentration; sporadic PD line; at least 4 biological replicates
Description: Fibroblast cells were plated in 6-well plates (VWR, 10861-554) on coverslips (Fisher scientific, 22-293232) at 400.000 cells/well and plates were incubated at 37° C., 5% CO2 for 24 hrs. Next, newly ordered chemical compounds dissolved in DMSO were added at defined concentrations and plates were incubated at 37° C./5% CO2 for 10 hrs. Then, FCCP (final concentration of 20 μM, Carbonyl cyanide 4-(trifluoromethoxy)phenylhydrazone, Sigma-Aldrich, C2920) in cell media was added to defined wells and plates were incubated at 37° C., 5% CO2 for another 14 hrs. Cells were fixed with ice-cold 90% methanol (Fisher, 482332) for 20 min at −20° C., incubated with blocking buffer (10% Normal Goat Serum (NGS) (ThermoFisher, 50062Z), 0.5% BSA (ThermoFisher, BP1600), 0.2% Triton X-100 (ThermoFisher, T8787)) at 25° C. for 15 min and incubated with anti-Miro1 (Sigma-Aldrich, HPA0101687) at 1:100 in blocking buffer O/N at 4° C. Samples were washed three times with 1×PBS (ThermoFisher, 10010-049), incubated with goat anti-Rabbit IgG (H+L) Cross-Adsorbed, Alexa Fluor 488 (ThermoFisher, A11008) at 1:500 in blocking buffer at 25° C. for 2 hrs and washed again three times with lx PBS, and finally samples were mounted with ProLong™ Glass Antifade Mountant with NucBlue™ Stain (hard-setting, Thermofisher, P36983) on glass slides and allowed to cure O/N. Samples were imaged at 25° C. with a 20×/N.A.0.60 oil Plan-Apochromat objective on a Leica SPE laser scanning confocal microscope (JH Technologies), with identical imaging parameters among different genotypes. Images were processed with ImageJ (Ver. 1.48, NIH) using the Intensity Ratio Nuclei Cytoplasm Tool (http://dev.mri.cnrs.fr/projects/imagej-macros/wiki/Intensity_Ratio_Nuclei_Cytoplasm_Tool), and average cytoplasmic intensity (the average intensity in the cytoplasm area) was plotted.
To reduce experimental bias such as the freshness the compounds, experimental reagents, and imaging devices, the 14 hits identified in the high-throughput screening were verified individually . The 14 compounds were tested at their highest screening concentrations with at least 4 biological replicates, using the same sporadic PD line. […] Samples were imaged with identical settings under the confocal microscope, and negative controls without primary antibodies yielded no signals under the imaging settings.

| SMILES | Basal Miro1 levels (without mitochondrial depolarization) |
| --- | --- |
| CC[C@H](C)C(=O)O[C@H]1C[C@H](O)C=C2C=C[C@H](C)[C@H](CC[C@@H](O)C[C@@H](O)CC(=O)O)[C@H]21 [Pravastatin Sodium] | already reduced Miro1 protein at baseline |
| COC(=O)C1=C(C)NC(C)=C(C(=O)OC2CCCN(Cc3ccccc3)C2)C1c1cccc([N+](=O)[O-])c1 (stereo not drawn) [Benidipine HCl] | no impact on basal Miro1 levels |
| CN(CCCN1c2ccccc2CCc2ccccc21)CC(=O)c1ccc(Cl)cc1 [Lofepramine] | already reduced Miro1 protein at baseline |
| CN(C)CCC[C@@]1(c2ccc(F)cc2)OCc2cc(C#N)ccc21 [Escitalopram Oxalate] | already reduced Miro1 protein at baseline |

Test system: Fibroblast cells
Experiment: Toxicity observed in hit confirmation
Format: cell-based, human
Settings: highest screening concentration, sporadic PD fibroblast line
Description: Fibroblast cells were plated in 6-well plates (VWR, 10861-554) on coverslips (Fisher scientific, 22-293232) at 400.000 cells/well and plates were incubated at 37° C., 5% CO2 for 24 hrs. Next, newly ordered chemical compounds dissolved in DMSO were added at defined concentrations and plates were incubated at 37° C./5% CO2 for 10 hrs. Then, FCCP (final concentration of 20 μM, Carbonyl cyanide 4-(trifluoromethoxy)phenylhydrazone, Sigma-Aldrich, C2920) in cell media was added to defined wells and plates were incubated at 37° C., 5% CO2 for another 14 hrs. Cells were fixed with ice-cold 90% methanol (Fisher, 482332) for 20 min at −20° C., incubated with blocking buffer (10% Normal Goat Serum (NGS) (ThermoFisher, 50062Z), 0.5% BSA (ThermoFisher, BP1600), 0.2% Triton X-100 (ThermoFisher, T8787)) at 25° C. for 15 min and incubated with anti-Miro1 (Sigma-Aldrich, HPA0101687) at 1:100 in blocking buffer O/N at 4° C. […]

| SMILES | Toxicity |
| --- | --- |
| O=C(O)CCC(=O)c1ccc(-c2ccccc2)cc1 [Fenbufen] | appeared toxic |

From US20220334133A1, “METHODS AND COMPOUNDS MODIFYING MITOCHONDRIAL FUNCTION” (The Board of Trusteesof the Leland Stanford Junior …, priority 2019, published 2022)
